Laboratory results: US5198430A, “Inclusion complexes with silybinin, their preparation and pharmaceutical compositions containing them” (Istituto Biochimico Italiano Giovanni Lorenzini SpA, priority 1989, dated 1993)

Key:
[1] = Resorption: excretion of Silybinin in rat bile after intragastric administration, quantitative TLC; set-up: species or system male Wistar SPF rats; details: in vivo, po, 5 mg/kg
Experimental: In a further experiment the resorption of Silymarin, Silybinin and of the complex of Example 6 was evaluated. For this purpose the excretion of Silybinin in the rat bile was determined in a conventional model experiment. Anesthetized male Wistar SPF rats kept under conventional conditions, were cannulated at the ductus choledochus. After intragastric administration of the test compound (5 mg Silybinin/kg) the bile fluid was collected for 5hr. The Silybinin content in the bile fluid was determined by quantitative thin layer chromatography.

[2] = pH 7.5
Experimental: Release experiments with Silybinin, Silymarin and the complex of this Example were carried out according to USP XXII, paddle apparatus at pH 7.5 and 37° C.

in vivo = assay: in vivo; set-up: species or system Wistar rats; details: po, 8 mg/kg
Experimental: The absorption of the complexes of the invention has been evaluated by orally administering an aqueous solution of the composition under examination and measuring by HPLC the Silybinin bile levels. This test has been preferred because it is well known that drugs of the Silymarin kind reach in the bile the highest concentration.
The experiments have been carried out on Wistar rats weighing 180-200 g to which the compositions under examination were administered by gastric intubation. The animals were kept on an empty stomach for 16 hours. The composition to be tested was dissolved in water containing 10% of gum Arabic and were prepared solutions so that each animal was administered,each time with an amount of 5 ml/kg of said solution.
Immediately after the treatment the animals were anaesthetized and operated to check the coledocous duct. A small tube was inserted therein and the bile was collected over a period of 24 hours.
For the analytical determination 1 ml bile was treated as described in the following publication: D. Lorenz et al, Pharmacokinetic Studies with Silymarin in Human Serum and Bile--Meth. and Find.Exptl.Clin.Pharmacol.6(10) 655-661 (1984).
in test A, there were administered 20 mg/kg of Silymarin, according to a known commercial formulation which corresponds to 8 mg/kg of pure Silybinin,
in test B, there were administered 8.79 mg/kg of Silybinin having a HPLC titre of 91%, which corresponds to 8 mg/kg of pure Silybinin, used such as without excipients, […]

[3] = Thermoanalytical studies (TG, DTG, DSC, TEA); format: physicochemical
Experimental: Thermoanalytical investigations were carried out on a Du Pont 990 Thermal Analyser System. TG (Thermogravimetry) DTG (Differential TG) DSC (Differential Scanning Calorimetry) and TEA (Thermal Evolution Analysis) curves of the drug, as well as those of its mechanical mixtures with DIMEB and HP-βCD and the complexes were taken simultaneously.

Molecule | dose excreted at 5 h [1] | release (solubility) [2] | 0-24 hr Silybinin in bile per rat (in vivo) | concentration at 24 h (in vivo; rat) | dose excreted at 24 h (in vivo; rat) | temperature at which decomposition of the drug begins ([3]; DSC, FIG. 4, non-complexed Silybinin) | loss of weight up to 160° C. ([3]; first decomposition step) | start of second decomposition step ([3]; region of the cyclodextrin decomposition) | % excreted Silybinin (in vivo; rat, 1440 min) | Bile 0-24 hr Silybinin level (in vivo; rat, 1440 min)
COc1cc(C2Oc3cc(C4Oc5cc(O)cc(O)c5C(=O)C4O)ccc3OC2CO)ccc1O (centres unmarked) [Silybinin] | 0.21% | 0% | 11.9 mcg/rat | 1000 ng/mL | 0.6% | about 130 °C | 4-5% | above 250 °C |  | 
Silybinin: β-cyclodextrin Inclusion Complex (Molar Ratio 1:1) [Example 1] |  |  | 256.6 mcg/rat |  |  |  |  |  | 11.7% | 17.6 µg/mL
